This experiment addresses T1, E. coli CsgA (Escherichia coli, UniProt P28307).
T1 construct: made in house; host or cells: E. coli NEB 3016 slyD::kan, pET11d
The experiment in a line: In vitro ThioflavinT assay of CsgA aggregation (CsgA ThT Assay). It counts as biochemical. The following applies: for remaining activity at 25 µM: compound 25 μM; for remaining activity at 100 µM: compound 100 μM. In outline:
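Purified C-terminal His-tagged CsgA, monomerised by desalting and 30-kDa filtration, at 2-20 μM with 20-40 μM ThT in 50 mM potassium phosphate pH 7.3, 1% DMSO, compounds 3.125-200 uM; room temperature, fluorescence (ex 438/em 495 nm) read every 15 min. Background-subtracted signal expressed as percent inhibition versus vehicle at 6-6.5 or 8-9 h, or as percent control AUC.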

Where [1] appears, read: read-out: CsgA ThT Assay (2 μM CsgA) % Control Bmax 25 μM, activity range, class symbol, CsgA 2 μM, white plates.
[2] abbreviates: read-out: CsgA ThT Assay (2 μM CsgA) % Control Bmax 25 μM, mean Bmax as percentage of DMSO control, CsgA 2 μM, white plates.
Where [3] appears, read: read-out: CsgA ThT Assay (2 μM CsgA) % Control Bmax 100 μM, activity range, class symbol, CsgA 2 μM, white plates.
The mark [4] stands for this setting: read-out: CsgA ThT Assay (2 μM CsgA) % Control Bmax 100 μM, mean Bmax as percentage of DMSO control, CsgA 2 μM, white plates.
[5] abbreviates: read-out: CsgA ThT Assay (10 μM CsgA) % Control AUC at 1005 minutes, 25 μM (activity range), CsgA 10 μM, black plates, 1005 minutes, class symbol.
Setting [6] is: read-out: CsgA ThT Assay (10 μM CsgA) % Control AUC at 1005 minutes, 25 μM, mean AUC as % of DMSO control, CsgA 10 μM, black plates, 1005 minutes.
Setting [7] is: read-out: CsgA ThT Assay (10 μM CsgA) % Control AUC at 1005 minutes, 100 μM (activity range), CsgA 10 μM, black plates, 1005 minutes, class symbol.
[8] abbreviates: read-out: CsgA ThT Assay (10 μM CsgA) % Control AUC at 1005 minutes, 100 μM, mean AUC as % of DMSO control, CsgA 10 μM, black plates, 1005 minutes.

Like-named read-outs stand apart in the source and are kept apart here. Bounds are passed on as bounds.

T1 sequence (P28307 23-151): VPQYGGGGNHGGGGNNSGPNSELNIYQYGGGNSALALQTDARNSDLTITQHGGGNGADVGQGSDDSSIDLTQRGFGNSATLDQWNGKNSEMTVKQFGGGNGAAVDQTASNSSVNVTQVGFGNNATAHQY

In the case of `O=C(O)C1CN(Cc2ccccc2)c2c(-c3cccc(C(F)(F)F)c3)c(Cc3cccc4ccccc34)c(Br)c(=O)n21` (stereo not shown) [Compound 003, 1-benzyl-6-bromo-7-(naphthalen-1-ylmethyl)-5-oxo-8-(3-(trifluoromethyl)phenyl)-1,2,3,5-tetrahydroimidazo[1,2-a]pyridine-3-carboxylic acid], the remaining activity at 25 µM under setting [1] is 31 to 60% and the remaining activity at 25 µM under setting [2] came out at 54%. Also, the remaining activity at 100 µM is 11 to 31% under setting [3] and 16% under setting [4].

Regarding `CCCN1CC(C(=O)O)n2c(c(-c3cccc(C(F)(F)F)c3)c(Cc3cccc4ccccc34)c(NC(=O)C(C)C)c2=O)S1(=O)=O` (stereo not shown) [Compound 152, 7-isobutyramido-8-(naphthalen-1-ylmethyl)-6-oxo-2-propyl-9-(3-(trifluoromethyl)phenyl)-3,4-dihydro-2H,6H-pyrido[1,2-e][1,2,5]thiadiazine-4-carboxylic acid 1,1-dioxide], the remaining activity at 25 µM is, setting by setting: under setting [1], over 60%; under setting [2], 90%. In addition, the remaining activity at 100 µM is over 60% under setting [3] and 107% under setting [4].

As for `Cc1c(Cc2cccc3ccccc23)c(-c2cccc(C(F)(F)F)c2)c2n(c1=O)C(C(=O)O)CN(C)S2(=O)=O` (stereo not shown) [Compound 068, 2,7-dimethyl-8-(naphthalen-1-ylmethyl)-6-oxo-9-(3-(trifluoromethyl)phenyl)-3,4-dihydro-2H,6H-pyrido[1,2-e][1,2,5]thiadiazine-4-carboxylic acid 1,1-dioxide], the remaining activity at 25 µM is, setting by setting: under setting [5], 31 to 60%; under setting [6], 43%. Also, the remaining activity at 100 µM under setting [7] was 11 to 31% and the remaining activity at 100 µM under setting [8] stood at 23%.

On to `CCCN1CC(C(=O)O)n2c1c(-c1cccc(C(F)(F)F)c1)c(Cc1cccc3ccccc13)c(Cl)c2=O` (stereo not shown) [Compound 162, 6-chloro-7-(naphthalen-1-ylmethyl)-5-oxo-1-propyl-8-(3-(trifluoromethyl)phenyl)-1,2,3,5-tetrahydroimidazo[1,2-a]pyridine-3-carboxylic acid], for which the remaining activity at 25 µM was 31 to 60% under setting [1] and 34% under setting [2]. For the same compound, the remaining activity at 100 µM runs as follows: under setting [3], 31 to 60%; under setting [4], 49%.

Turning to `CCCN1CC(C(=O)O)n2c(c(-c3cccc(C(F)(F)F)c3)c(Cc3cccc4ccccc34)c(O)c2=O)S1(=O)=O` (stereo not shown) [Compound 141, 7-hydroxy-8-(naphthalen-1-ylmethyl)-6-oxo-2-propyl-9-(3-(trifluoromethyl)phenyl)-3,4-dihydro-2H,6H-pyrido[1,2-e][1,2,5]thiadiazine-4-carboxylic acid 1,1-dioxide], the remaining activity at 25 µM under setting [1] is over 60% and the remaining activity at 25 µM under setting [2] came out at 80%. Further, the remaining activity at 100 µM by setting is: under setting [3], over 60%; under setting [4], 94%.

In the case of `Cn1c(=O)c2c(nc(CCCCCN3CC(C(=O)O)n4c(c(-c5cccc(C(F)(F)F)c5)c(Cc5cccc6ccccc56)cc4=O)S3(=O)=O)n2C)n(C)c1=O` (stereo not shown) [Compound 045, 8-(naphthalen-1-ylmethyl)-6-oxo-9-(3-(trifluoromethyl)phenyl)-2-(5-(1,3,7-trimethyl-2,6-dioxo-2,3,6,7-tetrahydro-1H-purin-8-yl)pentyl)-3,4-dihydro-2H,6H-pyrido[1,2-e][1,2,5]thiadiazine-4-carboxylic acid 1,1-dioxide], the remaining activity at 25 µM by setting is: under setting [5], 31 to 60%; under setting [6], 59%. Further, the remaining activity at 100 µM runs as follows: under setting [7], 31 to 60%; under setting [8], 53%.

As to `CC(C)N1CC(C(=O)O)n2c1c(-c1cccc(C(F)(F)F)c1)c(Cc1cccc3ccccc13)c(Cl)c2=O` (stereo not shown) [Compound 179, 6-chloro-1-isopropyl-7-(naphthalen-1-ylmethyl)-5-oxo-8-(3-(trifluoromethyl)phenyl)-1,2,3,5-tetrahydroimidazo[1,2-a]pyridine-3-carboxylic acid], the remaining activity at 25 µM by setting is: under setting [1], over 60%; under setting [2], 65%. The remaining activity at 100 µM under setting [3] lay in the range of 31 to 60% and the remaining activity at 100 µM under setting [4] came out at 48%.

Take `O=C(O)c1c(-c2ccccc2)sc2c(-c3cccc(C(F)(F)F)c3)c(Cc3cccc4ccccc34)cc(=O)n12` [Compound 051, 7-(naphthalen-1-ylmethyl)-5-oxo-2-phenyl-8-(3-(trifluoromethyl)phenyl)-5H-thiazolo[3,2-a]pyridine-3-carboxylic acid]: the remaining activity at 25 µM runs as follows: under setting [5], over 60%; under setting [6], 81%. The remaining activity at 100 µM is, setting by setting: under setting [7], 31 to 60%; under setting [8], 54%.

With `CNC(=O)C1CN(C)S(=O)(=O)c2c(-c3cccc(C(F)(F)F)c3)c(Cc3cccc4ccccc34)cc(=O)n21` (stereo not shown) [Compound 031, N,2-dimethyl-8-(naphthalen-1-ylmethyl)-6-oxo-9-(3-(trifluoromethyl)phenyl)-3,4-dihydro-2H,6H-pyrido[1,2-e][1,2,5]thiadiazine-4-carboxamide 1,1-dioxide], the remaining activity at 25 µM under setting [5] is over 60% and the remaining activity at 25 µM under setting [6] was 100%. The remaining activity at 100 µM is over 60% under setting [7] and 99% under setting [8].

With `Cn1c(=O)c2c(ncn2CCCCCN2CC(C(=O)O)n3c(c(-c4cccc(C(F)(F)F)c4)c(Cc4cccc5ccccc45)cc3=O)S2(=O)=O)n(C)c1=O` (stereo not shown) [Compound 034, 2-(5-(1,3-dimethyl-2,6-dioxo-1,2,3,6-tetrahydro-7H-purin-7-yl)pentyl)-8-(naphthalen-1-ylmethyl)-6-oxo-9-(3-(trifluoromethyl)phenyl)-3,4-dihydro-2H,6H-pyrido[1,2-e][1,2,5]thiadiazine-4-carboxylic acid 1,1-dioxide], the remaining activity at 25 µM runs as follows: under setting [5], over 60%; under setting [6], 62%. For the same compound, the remaining activity at 100 µM by setting is: under setting [7], over 60%; under setting [8], 95%.

As for `CC(C)(C)c1ccc(Cc2c(-c3cccc(C(F)(F)F)c3)c3n(c(=O)c2Cl)C(C(=O)O)CN3Cc2ccccc2)cc1` (stereo not shown) [Compound 216, 1-benzyl-7-(4-(tert-butyl)benzyl)-6-chloro-5-oxo-8-(3-(trifluoromethyl)phenyl)-1,2,3,5-tetrahydroimidazo[1,2-a]pyridine-3-carboxylic acid], the remaining activity at 25 µM is, setting by setting: under setting [1], over 60%; under setting [2], 95%. The remaining activity at 100 µM is 31 to 60% under setting [3] and 55% under setting [4].

For the compound `CCc1c(Cc2cccc3ccccc23)c(-c2cccc(C(F)(F)F)c2)c2n(c1=O)C(C(=O)O)CN2Cc1ccccc1` (stereo not shown) [Compound 140, 1-benzyl-6-ethyl-7-(naphthalen-1-ylmethyl)-5-oxo-8-(3-(trifluoromethyl)phenyl)-1,2,3,5-tetrahydroimidazo[1,2-a]pyridine-3-carboxylic acid], the remaining activity at 25 µM reads like this: under setting [1], 31 to 60%; under setting [2], 35%. The remaining activity at 100 µM is 11 to 31% under setting [3] and 19% under setting [4].

Turning to `O=C(O)C1CN(CCCO)S(=O)(=O)c2c(-c3cccc(C(F)(F)F)c3)c(Cc3cccc4ccccc34)cc(=O)n21` (stereo not shown) [Compound 056, 2-(3-hydroxypropyl)-8-(naphthalen-1-ylmethyl)-6-oxo-9-(3-(trifluoromethyl)phenyl)-3,4-dihydro-2H,6H-pyrido[1,2-e][1,2,5]thiadiazine-4-carboxylic acid 1,1-dioxide], the remaining activity at 25 µM runs as follows: under setting [5], 31 to 60%; under setting [6], 38%. Besides, the remaining activity at 100 µM is 31 to 60% under setting [7] and 34% under setting [8].

The values above are taken from patent publication US20230131899A1, “INHIBITORS OF MICROBIALLY INDUCED AMYLOID” (Axial Therapeutics, Inc., priority 2020, published 2023).
